These results are taken from US20220162169A1, “6-OXO-1,6-DIHYDROPYRIDAZINE PRODRUG DERIVATIVE, PREPARATION METHOD THEREFOR, AND APPLICATION THEREOF IN MEDICINE” (JIANGSU HENGRUI MEDICINE CO., LTD., priority 2019, published 2022).

SMILES strings stand for the structures. Converted amounts (≈) assume the structure as drawn. Where a name gives a salt, the structure may show the parent alone.

Data set [1] in a line: Solubility in PBS solution (pH 7.4) at room temperature. The data set is classed as physicochemical. As to conditions: for solubility at 24 h: PBS solution (pH 7.4), aqueous buffer, kinetic from dmso stock, PBS pH 7.4, room temperature, 24 hours shaking, 1% DMSO, average of two measurements, read-out: Solubility in PBS pH7.4; for Solubility in the PBS solution (pH 7.4), in words: room temperature, PBS pH 7.4. The protocol:
Test Example 1. Solubility of the Compound of the Present Disclosure in PBS Solution (pH 7.4) at Room Temperature
2.1 Formulation of the PBS solution (pH 7.4): 0.57 g of NaH2PO42.H2O, 5.55 g of Na2HPO4.12H2O and 6.48 g of NaCl were weighed, followed by the addition of ultra-pure water. The pH was adjusted to 7.4±0.05 with 1 M NaOH or 1 M HCl. Water was added until the volume reached 1 L. The PBS solution was stored in a refrigerator at 4° C. (the storage life was 6 months).
2.2 Formulation of the solution of the compound in PBS 7.4: An appropriate amount of the test compound was weighed, and dissolved in DMSO or a mixed solution of DMSO:acetonitrile:ethanol (1:1:1) to obtain a 10 mM stock solution of the test compound. 10 μL of the stock solution of the test compound and 990 μL of the PBS solution (pH 7.4) were precisely measured and placed in a 2 mL sample vial and mixed well, and the DMSO concentration of the final solution was 1% (v/v). This solution was formulated in duplicate, shaken on a plate bed at room temperature for 24 hours, and centrifuged at 5000 rpm for 20 minutes. The supernatant was analyzed by the liquid chromatograph.
2.3 Formulation of the reference solution: 10 μL of the stock solution of the test sample (concentration: 10 mM, dissolved in DMSO) and 990 μL of an organic mixed solvent (usually DMSO:acetonitrile:ethanol=1:1:1) were precisely measured and placed in a 2 mL sample vial, and mixed well to obtain a clear 100 μM sample solution. The solution was filtered through a 0.45 μm organic phase microporous filter membrane, and the filtrate was analyzed by the liquid chromatograph.
Solubility (μM)=peak area of the sample/peak area of the reference*concentration of the reference (μM)*sample solution dilution factor
The average of two measurements was used as the final solubility.

A short description of data set [2]: Pharmacokinetics assay in SD rats after intragastric administration, plasma LC/MS/MS. Format: in vivo. As to conditions: for Detection of the administered prodrug compound itself in rat plasma: after intragastric administration, LC/MS/MS; for In vivo conversion of the prodrug into its metabolite: intragastric administration. Here is the method: Test Example 2. Pharmacokinetics Assay of the Compounds of the Present Disclosure in Rats
SD rats were used as test animals. The drug concentration in plasma at different time points was determined by LC/MS/MS method after oral administration of the compounds of Example 2, Example 6 and Example 7 to SD rats. The pharmacokinetic behavior of the compounds of the present disclosure was studied and evaluated in SD rats.
Forty SD rats (half male and half female, equally divided into ten groups) were purchased from Shanghai Jiesijie Laboratory Animal Co., LTD. (Certificate No.: SCXK(Shanghai) 2013-0006).
An appropriate amount of the compound of Example 2 was weighed, followed by the addition of 5% of DMSO, 5% of tween 80 and 90% of normal saline successively to obtain a colorless, clear and transparent solution.
An appropriate amount of the compound of Example 2 was weighed, followed by the addition of 0.5% sodium carboxymethyl cellulose (containing 0.5% tween 80) to obtain a white homogeneous suspension.
An appropriate amount of the compound of Example 6 was weighed, and added to 200 mM (5% PVPK30+5% TPGS) Na2HPO4 solution (pH=9) to obtain a homogeneous suspension.
An appropriate amount of the compound of Example 7 was weighed, and added to 200 mM (5% PVPK30+5% TPGS) Na2HPO4 solution (pH=9) to obtain a homogeneous suspension.
After an overnight fast, the SD rats were intragastrically administered the test compounds. Regarding to the compound of Example 2 (formulation: 5% of DMSO, 5% of tween 80 and 90% of normal saline), the administration dose was 2 mg/kg, the administration volume was 10 mL/kg, and the administration concentration was 0.2 mg/mL. Regarding to the compound of Example 2 (formulation: 0.5% sodium carboxymethyl cellulose (containing 0.5% tween 80)), the administration dose was 10, 30, 100 mg/kg, the administration volume was 10 mL/kg, and the administration concentration was 1, 3, 10 mg/mL. Regarding to the compound of Example 6, the administration dose was 100, 300, 900 mg/kg, the administration volume was 10 mL/kg, and the administration concentration was 10, 30, 90 mg/mL. Regarding to the compound of Example 7, the administration dose was 10, 30, 100 mg/kg, the administration volume was 10 mL/kg, and the administration concentration was 1, 3, 10 mg/mL.
After an overnight fast, the SD rats were intragastrically administered the test compounds. 0.2 ml of blood was taken from the orbit before the administration and at 0.5, 1.0, 2.0, 4.0, 6.0, 8.0, 11.0 and 24.0 hours after the administration. The samples were stored in heparinized tubes, and centrifuged for 10 minutes at 3500 rpm to separate the blood plasma. The plasma samples were stored at −20° C. The SD rats were fed 2 hours after the administration.
The content of the test compound in the plasma of SD rats after administration of the test compound at different concentrations was determined: 25 μL of SD rat plasma at each time point after the administration was taken, followed by the addition of 50 μL of the internal standard camptothecin solution (100 ng/mL) and 200 μL of acetonitrile. The resulting solution was vortex-mixed for 5 minutes, and centrifuged for 10 minutes (3700 rpm). 3.0 μL of the supernatant was taken from the plasma samples of the compound of Example 2 (the group at the administration dose of 2 mg/kg) for LC/MS/MS analysis. 2.0 μL of the supernatant was taken from the plasma samples of the compound of Example 2 (the group at the administration dose of 10, 30, or 100 mg/kg) for LC/MS/MS analysis. 0.2 μL of the supernatant was taken from the plasma samples of the compound of Example 6 for LC/MS/MS analysis. 1 μL of the supernatant was taken from the plasma samples of the compound of Example 7 for LC/MS/MS analysis. […]

The target of data set [3] is T1, NaV1.8 ion channel (Homo sapiens, UniProt Q9Y5Y9).
T1 construct: expressed in transfected cells
In words: Manual patch clamp, inhibitory activity on NaV1.8 stably expressed on HEK293 cells. As to conditions: HEK293 cells stably expressing NaV1.8, manual patch clamp, resting protocol (clamped at -80 mV, depolarized to 10 mV), 1 μM TTX; read-out: IC50 on inhibiting the Nav1.8 channel activity. The data set is classed as cell-based. The text has this:
Test Example 3. Determination of the Inhibitory Activity of the Compounds of the Present Disclosure on NaV1.8
The purpose of the experiment is to investigate the effect of the compounds on NaV1.8 ion channel in an in vitro experiment, wherein the NaV1.8 ion channel is stably expressed on HEK293 cells. After the NaV1.8 current becomes stable, the NaV1.8 currents before and after the administration of the compound are compared so as to obtain the effect of the compound on the NaV1.8 ion channel.
Except for NaOH and KOH used for acid titration and base titration, all the compounds used for formulating the extracellular fluid and intracellular fluid were purchased from Sigma (St. Louis, Mo.). Extracellular fluid (mM): NaCl, 137; KCl, 4; CaCl2, 1.8; MgCl2, 1; HEPES, 10; glucose, 10; pH 7.4 (NaOH titration). Intracellular fluid (mM): aspartic acid, 140; MgCl2, 2; EGTA, 11; HEPES, 10; pH 7.2 (CsOH titration). All solutions of test compound and control compound contained 1 μM TTX.
The test compound was dissolved in dimethyl sulfoxide (DMSO) at a stock concentration of 9 mM. The stock solution of the test compound was dissolved in the extracellular fluid on the day of the test and formulated into the required concentration.
1) The compound was formulated into solutions with specified concentrations, the solutions were added to the pipelines respectively in order from low to high concentration, and the pipelines were marked.
2) The cell was transferred to the perfusion tank. A positive pressure was applied to the electrode. The tip of the electrode touched the cell. The three-way valve of the air extracting device was adjusted to a three-way state. […]
The cell was clamped at −80 mV. […] The maximum current caused by the square wave was measured. […] After the response became stable, the blocking intensity was calculated. […]
The inhibitory activity of the compounds of the present disclosure on NaV1.8 was determined by the above test, and the resulting IC50 values are shown in Table 3.

T1 sequence (Q9Y5Y9 whole entry): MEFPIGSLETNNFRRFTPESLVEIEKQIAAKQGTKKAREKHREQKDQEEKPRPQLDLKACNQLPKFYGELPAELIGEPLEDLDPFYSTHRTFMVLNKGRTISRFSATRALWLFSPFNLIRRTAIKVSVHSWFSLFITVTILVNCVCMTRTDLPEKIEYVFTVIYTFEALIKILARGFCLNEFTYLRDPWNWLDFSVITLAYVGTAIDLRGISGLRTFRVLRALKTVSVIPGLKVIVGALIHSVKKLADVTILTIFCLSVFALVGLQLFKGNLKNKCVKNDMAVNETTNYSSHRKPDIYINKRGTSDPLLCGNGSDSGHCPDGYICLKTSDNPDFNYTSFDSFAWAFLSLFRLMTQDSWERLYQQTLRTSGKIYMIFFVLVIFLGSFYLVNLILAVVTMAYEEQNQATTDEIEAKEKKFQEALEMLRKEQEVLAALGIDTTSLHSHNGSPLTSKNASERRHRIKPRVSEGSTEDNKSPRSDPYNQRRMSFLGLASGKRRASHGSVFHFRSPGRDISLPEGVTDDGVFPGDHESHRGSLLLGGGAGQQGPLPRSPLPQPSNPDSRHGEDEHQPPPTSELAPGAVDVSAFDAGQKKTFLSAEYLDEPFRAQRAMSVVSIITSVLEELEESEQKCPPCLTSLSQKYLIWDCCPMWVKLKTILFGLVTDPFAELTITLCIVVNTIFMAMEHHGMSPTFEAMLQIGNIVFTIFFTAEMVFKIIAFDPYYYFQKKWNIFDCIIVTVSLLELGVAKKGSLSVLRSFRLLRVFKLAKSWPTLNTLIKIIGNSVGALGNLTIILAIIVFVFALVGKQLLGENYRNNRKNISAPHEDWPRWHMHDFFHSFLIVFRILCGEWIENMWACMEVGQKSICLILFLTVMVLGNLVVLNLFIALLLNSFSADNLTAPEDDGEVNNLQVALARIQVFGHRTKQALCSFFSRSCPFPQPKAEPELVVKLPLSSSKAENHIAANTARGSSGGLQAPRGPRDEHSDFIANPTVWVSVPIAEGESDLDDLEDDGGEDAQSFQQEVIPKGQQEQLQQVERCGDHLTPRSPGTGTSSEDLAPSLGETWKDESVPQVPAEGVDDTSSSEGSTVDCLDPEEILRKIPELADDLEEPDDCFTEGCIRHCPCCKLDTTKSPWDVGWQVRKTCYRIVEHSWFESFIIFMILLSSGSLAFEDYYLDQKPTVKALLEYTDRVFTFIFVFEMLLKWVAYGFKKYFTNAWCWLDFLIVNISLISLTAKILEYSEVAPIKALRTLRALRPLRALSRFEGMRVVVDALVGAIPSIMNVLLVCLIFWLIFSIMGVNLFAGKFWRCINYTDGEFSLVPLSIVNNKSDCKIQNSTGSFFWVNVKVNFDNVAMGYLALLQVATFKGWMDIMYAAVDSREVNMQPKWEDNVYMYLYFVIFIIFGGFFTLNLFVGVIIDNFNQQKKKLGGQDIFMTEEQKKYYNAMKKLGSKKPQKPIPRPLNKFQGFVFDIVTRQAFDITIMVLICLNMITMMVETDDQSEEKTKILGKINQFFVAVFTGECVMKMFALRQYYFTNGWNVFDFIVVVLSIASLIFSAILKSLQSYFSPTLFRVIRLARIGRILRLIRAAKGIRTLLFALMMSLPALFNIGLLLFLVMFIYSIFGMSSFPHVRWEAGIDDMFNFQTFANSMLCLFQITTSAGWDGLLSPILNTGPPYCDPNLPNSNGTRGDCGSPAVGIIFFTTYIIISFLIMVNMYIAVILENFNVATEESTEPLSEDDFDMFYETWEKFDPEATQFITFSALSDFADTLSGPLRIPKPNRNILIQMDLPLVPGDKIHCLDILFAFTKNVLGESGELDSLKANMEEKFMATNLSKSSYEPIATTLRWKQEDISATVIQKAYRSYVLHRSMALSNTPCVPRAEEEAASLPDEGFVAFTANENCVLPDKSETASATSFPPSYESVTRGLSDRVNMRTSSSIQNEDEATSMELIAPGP

For the compound `Cc1cc(F)ccc1Oc1cc(C(F)(F)F)c(Cl)cc1C(=O)Nc1cn[nH]c(=O)c1` [Compound 1h, 5-Chloro-2-(4-fluoro-2-methylphenoxy)-N-(6-oxo-1,6-dihydropyridazin-4-yl)-4-(trifluoromethyl)benzamide], in data set [1], the solubility at 24 h amounted to 0.5 µM (≈ 0.221 µg/mL) and the “Solubility in the PBS solution (pH 7.4), in words” value was “poor”.
The corresponding values for `COc1cc(F)ccc1Oc1cc(C(F)(F)F)c(Cl)cc1C(=O)Nc1cn[nH]c(=O)c1` [Compound 6c, 5-Chloro-2-(4-fluoro-2-methoxyphenoxy)-N-(6-oxo-1,6-dihydropyridazin-4-yl)-4-(trifluoromethyl)benzamide] are 0.44 µM (≈ 0.201 µg/mL) and “poor”.
In the same order, the values of `[2H]C([2H])([2H])Oc1cc(F)ccc1Oc1cc(C(F)(F)F)c(Cl)cc1C(=O)Nc1cn[nH]c(=O)c1` [Compound 7d, 5-Chloro-2-(4-fluoro-2-(methoxy-d3)phenoxy)-N-(6-oxo-1,6-dihydropyridazin-4-yl)-4-(trifluoromethyl)benzamide] are 1.26 µM (≈ 0.581 µg/mL) and “poor”.
As to `Cc1cc(F)ccc1Oc1cc(C(F)(F)F)c(Cl)cc1C(=O)Nc1cnn(COC(=O)CCC(=O)O)c(=O)c1` [Example 2, 4-((4-(5-Chloro-2-(4-fluoro-2-methylphenoxy)-4-(trifluoromethyl)benzamido)-6-oxopyridazin-1(6H)-yl)methoxy)-4-oxobutanoic acid], in data set [2], the “Detection of the administered prodrug compound itself in rat plasma” value was “not detected” and the “In vivo conversion of the prodrug into its metabolite” value is listed as “converted into compound 1h in vivo”. The solubility at 24 h in data set [1] was 57.4 µM (≈ 32.8 µg/mL). For the same compound, the concentration for half-maximal inhibition (IC50) in data set [3] is 0.0376 µM.
Take `COc1cc(F)ccc1Oc1cc(C(F)(F)F)c(Cl)cc1C(=O)Nc1cnn(COC(=O)CCC(=O)O)c(=O)c1` [Example 6, 4-((4-(5-Chloro-2-(4-fluoro-2-methoxyphenoxy)-4-(trifluoromethyl)benzamido)-6-oxopyridazin-1(6H)-yl)methoxy)-4-oxobutanoic acid]: in data set [2], the “Detection of the administered prodrug compound itself in rat plasma” value is “not detected” and the “In vivo conversion of the prodrug into its metabolite” value is “converted into compound 6c in vivo”. The solubility at 24 h in data set [1] is 44.9 µM (≈ 26.4 µg/mL). In data set [3], the IC50 was 0.0039 µM.
For `Cc1cc(F)ccc1Oc1cc(C(F)(F)F)c(Cl)cc1C(=O)Nc1cnn(COS(=O)(=O)O)c(=O)c1` [Example 8, (4-(5-Chloro-2-(4-fluoro-2-methylphenoxy)-4-(trifluoromethyl)benzamido)-6-oxopyridazin-1(6H)-yl)methyl hydrogen sulfate], the solubility at 24 h in data set [1] stood at 707 µM.
The same measure, in the same setting: in the case of `Cc1cc(F)ccc1Oc1cc(C(F)(F)F)c(Cl)cc1C(=O)Nc1cnn(COC(=O)/C=C/C(=O)O)c(=O)c1` [Example 9, (E)-4-((4-(5-Chloro-2-(4-fluoro-2-methylphenoxy)-4-(trifluoromethyl)benzamido)-6-oxopyridazin-1(6H)-yl)methoxy)-4-oxobut-2-enoic acid] it was 63.5 µM (≈ 36.2 µg/mL).
Still for that read-out and setting: the same measure for `Cc1cc(F)ccc1Oc1cc(C(F)(F)F)c(Cl)cc1C(=O)Nc1cnn(COC(=O)CC(=O)O)c(=O)c1` [Example 10, 3-((4-(5-Chloro-2-(4-fluoro-2-methylphenoxy)-4-(trifluoromethyl)benzamido)-6-oxopyridazin-1(6H)-yl)methoxy)-3-oxopropanoic acid]: 147 µM (≈ 82 µg/mL).
Still for that read-out and setting: the same measure for `[2H]C([2H])([2H])Oc1cc(F)ccc1Oc1cc(C(F)(F)F)c(Cl)cc1C(=O)Nc1cnn(COS(=O)(=O)O)c(=O)c1` [Example 12, (4-(5-Chloro-2-(4-fluoro-2-(methoxy-d3)phenoxy)-4-(trifluoromethyl)benzamido)-6-oxopyridazin-1(6H)-yl)methyl hydrogen sulfate]: 96.2 µM.
Take `[2H]C([2H])([2H])Oc1cc(F)ccc1Oc1cc(C(F)(F)F)c(Cl)cc1C(=O)Nc1cnn(COC(=O)/C=C/C(=O)O)c(=O)c1` [Example 13, (E)-4-((4-(5-Chloro-2-(4-fluoro-2-(methoxy-d3)phenoxy)-4-(trifluoromethyl)benzamido)-6-oxopyridazin-1(6H)-yl)methoxy)-4-oxobut-2-enoic acid]: the solubility at 24 h in data set [1] was found to be 63.6 µM (≈ 37.4 µg/mL).

A word on the solubility: it is how much of the substance goes into solution per volume. A word on the IC50: it is the concentration at which inhibition is half-maximal.
